Measurements reported in US5573908A, “Adrenergic receptor as a proto-oncogene” (Duke University, priority 1993, dated 1996).
Several values for one entry are separate records, joined by “and”; a condition that tells them apart may be missing. Equal entries are not always repeated. Entries after “also recorded” stand apart in the source; their conditions may differ.

Assays:
α1B -ADR = conditions: NE alone, serum free medium; data not shown
[1] = tested on: RAT-1 fibroblasts transfected with α1B -ADR c-DNA; assay: Focus formation in RAT-1 fibroblasts transfected with α1B-ADR c-DNA; type: cell-based
Protocol: Transfection was carried out as follows: RAT-1 fibroblasts were seeded at a density of 2×10^5 cells in Dulbecco's modified Eagle's medium (DMEM) (Gibco) containing 5% fetal bovine serum (FBS) in 100 mm dishes. […] After 16 hours, the DNA precipitate was removed, the cells washed and grown for 24 hours in complete medium. Cells were split 1:5, allowed to attach overnight and then cultured in DMEM with 5% FBS alone, supplemented with 10 μM norepinephrine (NE) or G418 (300 μg/ml). Dishes were supplemented with NE daily, and fed every 3 days with fresh medium.

[2] = NE stimulated PI hydrolysis in RAT-1 cell lines transfected with vector alone; type: cell-based; conditions: 40 min, 10 μM NE, 40 minute, two clones, read-out: NE Stimulated PI Hydrolysis Rmax
Source text: In cell lines expressing the α1B -ADR mutant, NE induced a 900 to 1000% increase in inositol phosphates (Table 3); this level of PI hydrolysis was only seen in cells expressing the wild type receptor with a two fold higher level of receptor expression. […] The α1B -ADR, appearing on the surface of RAT-1 fibroblasts following transfection, therefore, functionally couples to PI hydrolysis in these cells. Whether receptor coupling to PLC actually mediates the α1B -ADR's ability to induce malignant transformation in these cells, however, remains speculative. Coupling of this receptor to alternate G proteins or effector systems may be responsible for triggering uncontrolled cell proliferation.
In Table 3, RAT-1 fibroblast cell lines transfected with expression vector alone or derived from transformed foci (α1B ADR or α1B ADR mutant) were selected with G418 (300 μg/ml). Ligand binding was performed on membranes prepared from two clones of each in accordance with known techniques (S. Cotecchia et al., Life Sci. 37, 2389 (1986)). For saturation binding analysis, [^125 ] HEAT concentrations ranged from 10 to 500 pM, nonspecific binding was determined using 1 μM prazosin; in competition experiments, the radioligand concentration was 100 pM. Ligand binding parameters were determined using computerized iterative nonlinear regression analysis (P. Munson, Methods in Enzymol. 92, 5432 (1983)). […]

[3] = tested on: RAT-1 fibroblast cell line derived from a single transformed focus expressing the α1B -ADR; assay: Morphology of focus-derived RAT-1 fibroblast cell line expressing the α1B-ADR; type: cell-based; conditions: 10 μM NE, 36 hours, 5% FBS
[4] = tested on: NIH 3T3 fibroblasts transfected with expression vector alone; assay: Focus formation in NIH 3T3 fibroblasts transfected with expression vector alone; type: cell-based; conditions: NIH 3T3 transfected with vector alone; 10 μM NE supplemented daily, 5% FBS (Table 1)
[5] = tested on: RAT-1 fibroblast cell lines expressing the α1B -ADR; assay: cells; conditions: 600 h, read-out: final cell density (day 25) relative to control
Protocol: Growth curves of G418 selected RAT-1 fibroblast cell lines transfected with vector alone (A), or expressing the α1B -ADR (B) or α1B -ADR mutant (C) in the absence (------) or presence (---) of norepinephrine (NE). Cells were plated in 100mm dishes at a density of 5×10^5 cells per dish in DMEM containing 5% FBS. After 24 hours, half the dishes received daily supplementation with 10 μM NE, and all dishes were fed with fresh medium every 2-3 days. At each time point, cells were trypsinized and cell counts determined using an electronic particle counter (Coulter Electronics). Values represent the mean of duplicate determinations of a representative experiment, which agree within 6%.
To quantitate receptor-mediated effects on mitogenesis, basal and NE-stimulated growth rates were assessed on cell lines expressing the wild type or mutant α1B -ADRs.

[6] = tested on: RAT-1 fibroblast cell lines transfected with vector alone; assay: Growth curves of RAT-1 fibroblast cell lines transfected with vector alone; type: cell-based; conditions: 10 μM NE daily, 5% FBS

NC[C@H](O)c1ccc(O)c(O)c1 [NE, norepinephrine]
increase in DNA synthetic activity (α1B -ADR): 11 fold | Agonist-induced foci as share of transfected clones ([1]; RAT-1, relative to number of G418 resistant colonies (40-60/dish)): 15-25% | Foci No. +NE ([1]; RAT-1 transfected with α1B ADR, 10 μM NE supplemented daily, 5% FBS, initially transfected cells (Table 1)): 8 | Foci No. +NE ([1]; focus derived RAT-1 cell lines, α1B ADR, 10 μM NE, 3 weeks of growth, two clones (Table 2)): 75 and 80 | activation at 10 µM [2]: 0% | cellular morphology / phenotype in the presence of agonist [3]: reverted to the transformed phenotype; also recorded: agonist-dependent alteration in cellular morphology with a loss in cellular orientation and decreased adhesiveness | Foci No. +NE [4]: 12 | fold induction at 10 µM [5]: 1.9 | rate of cell proliferation in the presence or absence of catecholamines [6]: no significant difference
